{"source": "ChEMBL document CHEMBL1154517", "about": "“Antimitotic activity of two macrocyclic bis(bibenzyls), isoplagiochins A and B from the Liverwort Plagiochila fruticosa” (Bioorg Med Chem Lett, 2009)", "test": "Inhibition of tubulin polymerization", "data": [{"smiles": "Oc1ccc2c(c1)CCc1ccc(O)c(c1)-c1cc(ccc1O)CCc1cccc(c1)O2", "note": "[DIHYDROISOPLAGIOCHIN A]", "values": [{"measurement": "IC50", "result": "> 100", "unit": "µM"}]}, {"smiles": "Oc1ccc2cc1-c1cc(ccc1O)CCc1c(ccc(O)c1O)Oc1cccc(c1)CC2", "note": "[DIHYDROISOPLAGIOCHIN B]", "values": [{"measurement": "IC50", "result": "> 100", "unit": "µM"}]}, {"smiles": "Oc1ccc2c(c1)CCc1ccc(O)c(c1)-c1cc(ccc1O)/C=C\\c1cccc(c1)O2", "note": "[ISOPLAGIOCHIN A]", "values": [{"measurement": "IC50", "result": 50, "unit": "µM"}]}, {"smiles": "Oc1ccc2cc1-c1cc(ccc1O)CCc1c(ccc(O)c1O)Oc1cccc(c1)/C=C\\2", "note": "[ISOPLAGIOCHIN B]", "values": [{"measurement": "Activity", "result": "Dose-dependent effect"}, {"measurement": "IC50", "result": 25, "unit": "µM"}]}, {"smiles": "CC[C@]1(O)C[C@@H]2CN(CCc3c([nH]c4ccccc34)[C@@](C(=O)OC)(c3cc4c(cc3OC)N(C)[C@H]3[C@@](O)(C(=O)OC)[C@H](OC(C)=O)[C@]5(CC)C=CCN6CC[C@]43[C@@H]65)C2)C1", "note": "[VINBLASTINE]", "values": [{"measurement": "IC50", "result": 2, "unit": "µM"}]}]}
